Results taken from article PMC6952399, “Structures of lipoprotein signal peptidase II from Staphylococcus aureus complexed with antibiotics globomycin and myxovirescin” (Nature Communications, 2020).
Where “and” joins values, the source holds several entries; their conditions need not be identical. Identical values can stand only once.

Target: T1, LspPae (lipoprotein signal peptidase II from Pseudomonas aeruginosa) (Pseudomonas aeruginosa, UniProt Q9HVM5)
T1 construct: made in house
T1 sequence (Q9HVM5 1-169): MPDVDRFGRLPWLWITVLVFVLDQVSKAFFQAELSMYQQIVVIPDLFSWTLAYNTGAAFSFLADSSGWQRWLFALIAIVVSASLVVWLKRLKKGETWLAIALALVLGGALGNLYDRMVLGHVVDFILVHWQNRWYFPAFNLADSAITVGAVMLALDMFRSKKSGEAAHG
Test: FRET lipopeptide peptidase assay, LspPae
Assay type: biochemical
Conditions: for Fluorescence (RFU): FRET substrate + LspA + Myxovirescin; for Rate (RFU/min) / Normalised rate (Vi/V0): replicates 1 and 2; for Ki: estimated Ki’ (apparent inhibition constant)
Description: FRET activity assays. A FRET based assay was developed using a labelled lipopeptide substrate (Supplementary Methods, Supplementary Fig. 3b) to directly monitor the protease activity of LspA. The optimised LspMrs assay buffer included 100 mM Tris/HCl pH 7.8, 150 mM NaCl and 0.09%(w/v) DDM. The corresponding optimized buffer for LspPae included 100 mM MES/NaOH pH 5.6, 150 mM NaCl and 0.05%(w/v) LMNG. All assays were performed at 37 °C.
Reaction mixtures were prepared by vortexing (Clifton, cyclone CM-1) for 2 s and incubated at 37 °C, 800 rpm for 10 to 30 min. […] For dose-response assays, the final DMSO concentration in all reactions was 10%(v/v). Reaction mixtures were pipetted into wells of a 96- (Thermo Scientific) or a 384-well plate (4titude®) and incubated for 10 min at 37 °C in a SpectraMax M3 or a SpectraMax M5e plate reader (Molecular devices) prior to starting the assay. Assays were initiated by adding enzyme to a final concentration in the range 10–300 nM. Total reaction mixture volume was 50 μL. Reactions were monitored by fluorescence (Ex/Em, 320 nm/420 nm) for 30 to 60 min at 37 °C. Initial rates were calculated from the fluorescence intensity versus time progress curves (Supplementary Figs. 5 and 6). Occasionally, lag periods in the progress curves were observed (Supplementary Discussion). In such cases, initial rates were calculated after the lag period had passed (typically 1–5 min) and a steady rate had been established. Dose-response plots to determine IC50 values were generated using Prism® 5 software from GraphPad.
It was possible to convert units of fluorescence change into moles of substrate consumed or products formed because pure products of LspA action on Abz-LALAGC*SS-nY-NH2 had been synthesized and were available. These were used to create a standard curve of fluorescence versus moles of the two products in equimolar amounts and to calculate specific activity values. […]
One consequence of LspMrs having a relatively low specific activity is that, in order to get a reliable signal in activity assays, it was necessary to raise enzyme concentration. For kinetic measurements generally, it is desirable to use an enzyme concentration that is much lower than that of the substrate. In this situation, the usual assumption that added and free substrate concentrations are equal is valid. At high enzyme concentrations [E] therefore, and especially in the case of tight ligand binding where the inhibition constant, Ki, is small, a measured IC50 is limited to [E]/2 4–6. In such circumstances, a meaningful IC50 or Ki can only be obtained with considerable effort. With a few exceptions in the current study, this situation prevailed with both LspA orthologs where IC50 values came close to [E]/2 (Table 1 and Supplementary Table 3, Supplementary Fig. 6). […]
Inhibition of LspA from E. coli by globomycin has been described as non-competitive7. The evidence provided in support o f this conclusion included an insensitivity of IC 50 to substrate concentration and the fact that the Vmax but not the K m changed with globomycin concentration. It was of interest to determine if a similar mode of inhibition applied to LspPae and LspMrs. From published work7–9 and from FRET-based kinetics measurements reported here, we know that globomycin binds with high affinity (Supplementary Fig. 6). Tight binding means that a more in-depth analysis must be carried out in order to identify inhibition type. For such analysis, it is important to know active enzyme concentration accurately. Fortunately, it was possible to use the property of tight inhibitor binding to measure the concentration of active enzyme ( Supplementary Fig. 18a). In the case of LspPae, the estimated value and the concentration determined spectroscopically agreed remarkably well. Parenthetically we note that knowing active LspPae concentration accurately enabled a characterization of the myxovirescin sample used in this study. Myxovirescin also binds tightly to LspA (Supplementary Fig. 6). […]

[1] = Suppl. Fig. 18b, [Myxovirescin] 0.02 μM
[2] = Suppl. Fig. 18b, [Myxovirescin] 0.05 μM
[3] = Suppl. Fig. 18b, [Myxovirescin] 0.08 μM
[4] = Suppl. Fig. 18b, [Myxovirescin] 0.1 μM
[5] = Suppl. Fig. 18b, [Myxovirescin] 0.12 μM
[6] = Suppl. Fig. 18b, [Myxovirescin] 0.15 μM
[7] = Suppl. Fig. 18b, [Myxovirescin] 0.25 μM
[8] = Suppl. Fig. 18c, [Myxovirescin] nominal conc. 0.02 μM, corrected conc. 0.01454 μM
[9] = Suppl. Fig. 18c, [Myxovirescin] nominal conc. 0.05 μM, corrected conc. 0.03635 μM
[10] = Suppl. Fig. 18c, [Myxovirescin] nominal conc. 0.08 μM, corrected conc. 0.05816 μM
[11] = Suppl. Fig. 18c, [Myxovirescin] nominal conc. 0.1 μM, corrected conc. 0.0727 μM
[12] = Suppl. Fig. 18c, [Myxovirescin] nominal conc. 0.12 μM, corrected conc. 0.08724 μM
[13] = Suppl. Fig. 18c, [Myxovirescin] nominal conc. 0.15 μM, corrected conc. 0.10905 μM
[14] = Suppl. Fig. 18c, [Myxovirescin] nominal conc. 0.25 μM, corrected conc. 0.18175 μM

CCCC1OC(=O)C(C)CC(C)CCCCC(=O)CCCC(CC)C=CC=C(COC)CCC(O)C(O)CC(O)CNC1=O (centres unmarked) [myxovirescin, myxovirescin A1]
inhibitor on-rates (5-fold molar excess of antibiotic added 20 to 30 min after start of reaction): fast
Fluorescence (RFU) (time 27 min): 524.203 RFU
Fluorescence (RFU) (time 27.5 min): 527.644 RFU
Fluorescence (RFU) (time 28 min): 525.326 RFU
Fluorescence (RFU) (time 28.5 min): 532.036 RFU
Fluorescence (RFU) (time 29 min): 530.446 RFU
Fluorescence (RFU) (time 29.5 min): 520.770 RFU
Fluorescence (RFU) (time 30 min): 525.266 RFU
Fluorescence (RFU) (time 30.5 min): 523.492 RFU
Fluorescence (RFU) (time 31 min): 522.555 RFU
Fluorescence (RFU) (time 31.5 min): 520.169 RFU
Fluorescence (RFU) (time 32 min): 526.741 RFU
Fluorescence (RFU) (time 32.5 min): 523.010 RFU
Fluorescence (RFU) (time 33 min): 519.722 RFU
Fluorescence (RFU) (time 33.5 min): 528.885 RFU
Fluorescence (RFU) (time 34 min): 517.843 RFU
Fluorescence (RFU) (time 34.5 min): 518.721 RFU
Fluorescence (RFU) (time 35 min): 516.893 RFU
Fluorescence (RFU) (time 35.5 min): 521.148 RFU
Fluorescence (RFU) (time 36 min): 519.865 RFU
Fluorescence (RFU) (time 36.5 min): 522.746 RFU
Fluorescence (RFU) (time 37 min): 519.603 RFU
Fluorescence (RFU) (time 37.5 min): 522.440 RFU
Fluorescence (RFU) (time 38 min): 518.255 RFU
Fluorescence (RFU) (time 38.5 min): 516.274 RFU
Fluorescence (RFU) (time 39 min): 516.879 RFU
Fluorescence (RFU) (time 39.5 min): 521.400 RFU
Fluorescence (RFU) (time 40 min): 509.974 RFU
Fluorescence (RFU) (time 40.5 min): 516.718 RFU
Fluorescence (RFU) (time 41 min): 513.520 RFU
Fluorescence (RFU) (time 41.5 min): 514.018 RFU
Fluorescence (RFU) (time 42 min): 520.839 RFU
Fluorescence (RFU) (time 42.5 min): 520.491 RFU
Fluorescence (RFU) (time 43 min): 514.424 RFU
Fluorescence (RFU) (time 43.5 min): 516.271 RFU
Fluorescence (RFU) (time 44 min): 509.335 RFU
Fluorescence (RFU) (time 44.5 min): 511.506 RFU
Fluorescence (RFU) (time 45 min): 512.926 RFU
Fluorescence (RFU) (time 45.5 min): 515.088 RFU
Fluorescence (RFU) (time 46 min): 509.497 RFU
Fluorescence (RFU) (time 46.5 min): 509.153 RFU
Fluorescence (RFU) (time 47 min): 505.807 RFU
Fluorescence (RFU) (time 47.5 min): 508.613 RFU
Fluorescence (RFU) (time 48 min): 508.252 RFU
Fluorescence (RFU) (time 48.5 min): 514.611 RFU
Fluorescence (RFU) (time 49 min): 508.852 RFU
Fluorescence (RFU) (time 49.5 min): 511.333 RFU
Fluorescence (RFU) (time 50 min): 507.505 RFU
Fluorescence (RFU) (time 50.5 min): 508.404 RFU
Fluorescence (RFU) (time 51 min): 511.832 RFU
IC50 (IC50, 20 nM LspPae, substrate 5 µM): 9.76 nM and 12.3 nM
IC50 (IC50, 20 nM LspPae, substrate 7.5 µM): 10.4 nM and 12.9 nM
IC50 (IC50, 20 nM LspPae, substrate 10 µM): 11.1 nM and 14.4 nM
IC50 (IC50, 20 nM LspPae, substrate 15 µM): 8.51 nM and 11.1 nM
IC50 (IC50, 20 nM LspPae, substrate 20 µM): 9.14 nM and 13.9 nM
IC50 (IC50, 20 nM LspPae, substrate 30 µM): 11.4 nM and 13.8 nM
IC50 (IC50, FRET, 0.1 µM enzyme, 30 µM substrate, initial rates): 53 nM
IC50 (IC50, LspPae concentration 10 nM): 4.1 nM and 5 nM
IC50 (IC50, LspPae concentration 20 nM): 13.5 nM and 21.2 nM
IC50 (IC50, LspPae concentration 40 nM): 20.3 nM and 26.1 nM
IC50 (IC50, LspPae concentration 60 nM): 24.5 nM and 34.1 nM
IC50 (IC50, LspPae concentration 80 nM): 41.7 nM and 50.6 nM
IC50 (IC50, LspPae concentration 100 nM): 49.2 nM and 55.8 nM
Rate (RFU/min) (LspPae block, log [myxo] (uM) -0.82): 0.2 RFU/min
Rate (RFU/min) (LspPae block, log [myxo] (uM) -0.92): 0.1 RFU/min and 0.2 RFU/min
Rate (RFU/min) (LspPae block, log [myxo] (uM) -1.00): 0.1 RFU/min and 0.2 RFU/min
Rate (RFU/min) (LspPae block, log [myxo] (uM) -1.10): 1.3 RFU/min and 1.5 RFU/min
Rate (RFU/min) (LspPae block, log [myxo] (uM) -1.30): 5.8 RFU/min and 6.2 RFU/min
Rate (RFU/min) (LspPae block, log [myxo] (uM) -1.70): 10.2 RFU/min and 10.1 RFU/min
Rate (RFU/min) (LspPae block, log [myxo] (uM) -2.00): 11.4 RFU/min and 11.5 RFU/min
Normalised rate (Vi/V0) [1]: 0.8634 and 0.8943
Rate (RFU/min) [1]: 45.52 RFU/min and 45.67 RFU/min
Normalised rate (Vi/V0) [2]: 0.6591 and 0.6875
Rate (RFU/min) [2]: 34.75 RFU/min and 35.11 RFU/min
Normalised rate (Vi/V0) [3]: 0.4365 and 0.4511
Rate (RFU/min) [3]: 23.01 RFU/min and 23.04 RFU/min
Normalised rate (Vi/V0) [4]: 0.2771 and 0.2863
Rate (RFU/min) [4]: 14.61 RFU/min and 14.62 RFU/min
Normalised rate (Vi/V0) [5]: 0.09825 and 0.09947
Rate (RFU/min) [5]: 5.18 RFU/min and 5.08 RFU/min
Normalised rate (Vi/V0) [6]: 0.01309 and 0.02976
Rate (RFU/min) [6]: 0.69 RFU/min
Normalised rate (Vi/V0) [7]: 0.01574 and 0.02741
Rate (RFU/min) [7]: 0.83 RFU/min and 1.4 RFU/min
Normalised rate (Vi/V0) [8]: 0.8634 and 0.8943
Rate (RFU/min) [8]: 45.52 RFU/min and 45.67 RFU/min
Normalised rate (Vi/V0) [9]: 0.6591 and 0.6875
Rate (RFU/min) [9]: 34.75 RFU/min and 35.11 RFU/min
Normalised rate (Vi/V0) [10]: 0.4365 and 0.4511
Rate (RFU/min) [10]: 23.01 RFU/min and 23.04 RFU/min
Normalised rate (Vi/V0) [11]: 0.2771 and 0.2863
Rate (RFU/min) [11]: 14.61 RFU/min and 14.62 RFU/min
Normalised rate (Vi/V0) [12]: 0.09825 and 0.09947
Rate (RFU/min) [12]: 5.18 RFU/min and 5.08 RFU/min
Normalised rate (Vi/V0) [13]: 0.01309 and 0.02976
Rate (RFU/min) [13]: 0.69 RFU/min
Normalised rate (Vi/V0) [14]: 0.01574 and 0.02741
Rate (RFU/min) [14]: 0.83 RFU/min and 1.4 RFU/min
IC50 (average IC50, 20 nM LspPae, substrate 2.5 or 5 to 30 µM): ~10 nM
Ki (Morrison analysis, 30 µM substrate, 0.1 µM LspPae): 0.0476 ± 0.128 nM
Ki (from dependence of IC50 on enzyme concentration, IC50 = Ki’ + [E]/2): 2.69 ± 2.8 nM
